Assay results: article PMC8587151, “Dibenzofuran Derivatives Inspired from Cercosporamide as Dual Inhibitors of Pim and CLK1 Kinases” (Molecules, 2021)
Several values for one entry are separate records, joined by “and”; a condition that tells them apart may be missing. Identical values can stand only once. Like-named read-outs stand apart in the source and are kept apart here.

Experiments:
KU812 cells = assay: MTT cell proliferation assay; format: cell-based; conditions: Homo sapiens, 48 h, mean ± SEM
Excerpt: (§1) Various types of hematological malignancies were selected for in vitro testing: the human acute myeloid leukemia (AML) cell line MV4-11, and the human chronic myeloid leukemia (CML) cell lines KU812 and K562. Indeed, Pim kinases are overexpressed in a wide range of hematopoietic malignancies. Solid tumors were also included in the panel of tested cell lines: MCF-7 (human breast adenocarcinoma), HT-29 (human colon adenocarcinoma), and HeLa (human cervical cancer) cells. Cytotoxic effects were evaluated using an MTT assay, and living cells were also counted with the trypan blue dye exclusion method for MV4-11, KU812, and K562 cells.
(§2) MV4-11, K562, and KU812 cell lines were obtained from the Deutshe Sammlung von Mikroorganismens und Zellkulturen (DSMZ) and maintained according to the supplier’s recommendations. All cell lines were cultured in RPMI, with 10% fetal bovine serum, 1% glutamine, and 1% penicillin/ streptomycin at 37 °C and 5% CO2.
(§3) MV4-11, K562, and KU812 cells’ viability was studied using a MTT cell proliferation assay.
(§4) MV4-11, K562, and KU812 cells were incubated with 10 μL of MTT working solution (5 g/L of methylthiazolyldiphenyl-tetrazolium bromide from Sigma Aldrich, Lyon, France) for 4 h. Cells were then lysed overnight at 37 °C with 100 μL of 10% SDS and 0.003% HCl. Optical density (OD) at 570 nm was measured using a spectrophotometer CLARIOstar® (BMG Labtech, Offenburg, Germany). Living cells were also counted with the trypan blue dye exclusion method. […] Data were collected from at least three independent experiments and the values reported are means ± standard errors of the mean (SEM).

K562 cells = assay: MTT cell proliferation assay; format: cell-based; conditions: Homo sapiens, 48 h, mean ± SEM
Excerpt: as §1, §2, §3, §4

CaPkc1 = system: CaPkc1; parameters: method as in PMID 20865172; conditions: ATP-competitive; cited from earlier work
HeLa cells = assay: MTT cytotoxicity assay; format: cell-based; conditions: Homo sapiens, 72 h
Excerpt: as §1
(§5) The cancer cell lines MCF-7, HT-29, and HeLa were obtained from Cell Bank of Rio de Janeiro, Brazil, and were grown in RPMI-1640 medium and L929 cells were grown in Dulbecco’s Modified Eagle’s Medium (DMEM). Both media were supplemented with fetal bovine serum (FBS) (10% of the final concentration) followed by treatment with penicillin and streptomycin as antibiotics (1% of the final concentration). The crude was incubated in the presence of CO2 atmosphere (5%) for 24 h with the temperature monitored and maintained at 37 °C.
(§6) MCF-7, HT-29, HeLa, and L929 cells (3×10^5 cells/mL) were plated in 96-well plates and incubated in the presence of CO2 atmosphere (5%) for 24 h at 37 °C. […] Then, 25 μL of MTT (5 mg/mL in PBS) were added to each well and the plates were left for another 3 h in the incubator at 37 °C and at the end of this period, the supernatant was aspirated. To perform the reading, 100 μL of dimethylsulfoxide (DMSO) were added in each well for the dissolution of the formazan crystals. The amount of formazan was measured by reading the plate at 560 nm absorbance. […] Each sample was tested in triplicate in two independent experiments.

HT-29 cells = assay: MTT cytotoxicity assay; format: cell-based; conditions: Homo sapiens, 72 h
Excerpt: as §1, §5, §6

MCF-7 cells = assay: MTT cytotoxicity assay; format: cell-based; conditions: Homo sapiens, MCF7, 72 h
Excerpt: as §1, §5, §6

HsPim-1 = molecular target: T1, HsPim-1 (Homo sapiens, UniProt P11309); assay: Kinase assay, luminescent ADP-Glo, 10 µM ATP; format: biochemical
T1 construct: made in house; host or cells: Escherichia coli BL21 DE3 pLysS
T1 sequence (P11309 whole entry): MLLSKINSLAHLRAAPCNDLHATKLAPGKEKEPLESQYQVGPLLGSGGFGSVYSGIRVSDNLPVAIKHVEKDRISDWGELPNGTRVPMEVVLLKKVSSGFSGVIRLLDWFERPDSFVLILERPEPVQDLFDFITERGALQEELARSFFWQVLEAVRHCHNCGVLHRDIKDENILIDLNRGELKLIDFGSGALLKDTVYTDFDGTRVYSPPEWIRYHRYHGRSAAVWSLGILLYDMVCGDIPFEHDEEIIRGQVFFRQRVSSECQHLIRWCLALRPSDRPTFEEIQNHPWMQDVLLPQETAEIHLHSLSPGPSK
Description: (§7) The synthesized compounds were tested using a luminescence-based assay against a panel of nine kinases: Pim-1, Pim-2, CDK5/p25, CDK9/CyclinT, Haspin, CK1ε, and GSK3β (from human); DYRK1A (from Rattus norvegicus); and CLK1 (from Mus musculus).
(§8) Kinase enzymatic activities were assayed with 10 µM ATP in 384-well plates using the luminescent ADP-Glo^TM assay (Promega, Madison, WI, USA) according to the recommendations of the manufacturer (see [56] for details on this method). The transmitted signal was measured using the Envision (PerkinElmer, Waltham, MA, USA) microplate luminometer and expressed in relative light unit (RLU). In order to determine the half maximal inhibitory concentration (IC50), the assays were performed in duplicate in the absence or presence of increasing doses of the tested compounds. GraphPad Prism6 software (GraphPad Software, San Diego, CA, USA) was used to fit dose–response curves and to determine the IC50 values. Kinase activities are expressed in % of maximal activity, i.e., measured in the absence of inhibitor. Peptide substrates were obtained from Proteogenix (Schiltigheim, France).
(§9) For kinases expressed in bacteria, the Escherichia coli BL21 DE3 pLysS strain (Invitrogen, ThermoFisher Scientific, Waltham, MA, USA) was transformed with pGEX-2T-1 (Sigma-Aldrich, St. Louis, MO, USA) containing the coding region of the corresponding kinase. For kinases expressed in Sf9 insect cells, the coding region of the corresponding kinase was cloned in pFastBac^TM vector. Purification of the recombinant kinases was performed following the protocol “Bac-to-Bac® Baculovirus Expression System” provided by the manufacturer (Invitrogen, ThermoFisher Scientific, Waltham, MA, USA).
(§10) To validate the kinase assay, model inhibitors were used for each tested enzyme: Staurosporine from Streptomyces sp. (#S5921, purity ≥ 95%, Sigma-Aldrich) for HsCK1ε; Indirubin-30-oxime (#I0404, purity ≥ 98%, Sigma-Aldrich) for HsGSK-3β, HsPim-1 and 2, human cyclin-dependent kinases, RnDYRK1A and MmCLK1; CHR-6494 (#SML0648, purity ≥ 98%, Sigma-Aldrich) for Haspin.

MmCLK1 = molecular target: T2, MmCLK1 (Mus musculus, UniProt P22518); assay: Kinase assay, luminescent ADP-Glo, 10 µM ATP; format: biochemical; conditions: ADP-Glo, 10 µM ATP, duplicate; read-out: Kinase Enzymatic IC50 CLK1
T2 construct: made in house; host or cells: Escherichia coli BL21 DE3 pLysS
T2 sequence (P22518 whole entry): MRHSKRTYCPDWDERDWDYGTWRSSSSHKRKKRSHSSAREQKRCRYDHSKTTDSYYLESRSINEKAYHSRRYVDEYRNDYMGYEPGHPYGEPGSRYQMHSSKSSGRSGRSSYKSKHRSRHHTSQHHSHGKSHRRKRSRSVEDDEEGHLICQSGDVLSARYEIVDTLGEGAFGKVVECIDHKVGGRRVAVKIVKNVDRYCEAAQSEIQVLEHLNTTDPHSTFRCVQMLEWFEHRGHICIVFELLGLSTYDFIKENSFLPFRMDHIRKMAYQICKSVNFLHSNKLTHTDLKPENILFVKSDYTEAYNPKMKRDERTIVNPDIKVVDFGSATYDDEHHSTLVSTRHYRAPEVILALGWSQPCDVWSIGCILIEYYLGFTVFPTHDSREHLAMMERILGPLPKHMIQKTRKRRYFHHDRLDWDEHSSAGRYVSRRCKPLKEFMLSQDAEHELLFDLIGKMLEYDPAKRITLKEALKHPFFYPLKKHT
Description: as §7, §8, §9, §10

HsCDK5/p25 = molecular target: T3, HsCDK5/p25 (Homo sapiens, UniProt Q00535); assay: Kinase assay, luminescent ADP-Glo, 10 µM ATP; format: biochemical; conditions: duplicate, read-out: Kinase Enzymatic IC50 CDK5/p25
T3 construct: made in house; host or cells: Escherichia coli BL21 DE3 pLysS
T3 sequence (Q00535 whole entry): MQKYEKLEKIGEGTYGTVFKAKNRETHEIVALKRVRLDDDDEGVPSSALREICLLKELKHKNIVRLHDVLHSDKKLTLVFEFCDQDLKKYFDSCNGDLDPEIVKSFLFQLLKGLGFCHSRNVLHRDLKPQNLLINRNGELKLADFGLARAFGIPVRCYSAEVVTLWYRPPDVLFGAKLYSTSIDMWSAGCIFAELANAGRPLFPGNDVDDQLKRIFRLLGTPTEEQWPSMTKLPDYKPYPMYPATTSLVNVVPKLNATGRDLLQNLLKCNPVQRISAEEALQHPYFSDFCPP
T3 sequence (Q15078 99-307 partner limits assumed): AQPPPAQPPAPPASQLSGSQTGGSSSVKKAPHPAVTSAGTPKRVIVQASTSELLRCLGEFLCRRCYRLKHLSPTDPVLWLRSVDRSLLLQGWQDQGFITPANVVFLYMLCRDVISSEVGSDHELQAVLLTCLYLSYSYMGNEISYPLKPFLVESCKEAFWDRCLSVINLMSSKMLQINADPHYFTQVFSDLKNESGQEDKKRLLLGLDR
Description: as §7, §8, §9, §10

HsPim-2 = molecular target: T4, HsPim-2 (Homo sapiens, UniProt Q9P1W9); assay: Kinase assay, luminescent ADP-Glo, 10 µM ATP; format: biochemical; conditions: mean of n ≥ 3, read-out: IC50 Pim-2
T4 construct: made in house; host or cells: Escherichia coli BL21 DE3 pLysS
T4 sequence (Q9P1W9 whole entry): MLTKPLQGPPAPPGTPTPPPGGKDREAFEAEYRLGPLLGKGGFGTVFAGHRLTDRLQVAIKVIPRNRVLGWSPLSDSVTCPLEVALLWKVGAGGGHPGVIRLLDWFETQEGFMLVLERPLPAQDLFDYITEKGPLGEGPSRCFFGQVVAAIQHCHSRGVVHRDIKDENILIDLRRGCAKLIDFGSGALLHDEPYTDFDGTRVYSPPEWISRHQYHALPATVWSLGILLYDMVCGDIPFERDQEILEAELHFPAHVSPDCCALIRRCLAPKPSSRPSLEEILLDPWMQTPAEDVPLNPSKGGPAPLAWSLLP
Description: as §7, §8, §9, §10

HsCDK9/CyclinT = molecular target: T5, HsCDK9/CyclinT (Homo sapiens, UniProt P50750); assay: Kinase assay, luminescent ADP-Glo, 10 µM ATP; format: biochemical; conditions: duplicate, read-out: Kinase Enzymatic IC50 CDK9/CyclinT
T5 construct: made in house; host or cells: Sf9 insect cells (baculovirus, pFastBac)
T5 sequence (P50750 whole entry): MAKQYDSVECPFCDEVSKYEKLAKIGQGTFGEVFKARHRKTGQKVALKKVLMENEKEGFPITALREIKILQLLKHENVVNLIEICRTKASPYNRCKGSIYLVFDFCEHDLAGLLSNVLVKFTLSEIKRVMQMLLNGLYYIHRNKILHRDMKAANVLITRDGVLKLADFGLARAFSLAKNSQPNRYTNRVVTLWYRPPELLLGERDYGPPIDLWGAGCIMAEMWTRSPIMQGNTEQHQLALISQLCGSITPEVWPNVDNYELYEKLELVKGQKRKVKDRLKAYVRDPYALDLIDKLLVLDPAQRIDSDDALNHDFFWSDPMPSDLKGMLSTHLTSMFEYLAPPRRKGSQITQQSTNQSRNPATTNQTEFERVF
T5 sequence (O60563 whole entry partner): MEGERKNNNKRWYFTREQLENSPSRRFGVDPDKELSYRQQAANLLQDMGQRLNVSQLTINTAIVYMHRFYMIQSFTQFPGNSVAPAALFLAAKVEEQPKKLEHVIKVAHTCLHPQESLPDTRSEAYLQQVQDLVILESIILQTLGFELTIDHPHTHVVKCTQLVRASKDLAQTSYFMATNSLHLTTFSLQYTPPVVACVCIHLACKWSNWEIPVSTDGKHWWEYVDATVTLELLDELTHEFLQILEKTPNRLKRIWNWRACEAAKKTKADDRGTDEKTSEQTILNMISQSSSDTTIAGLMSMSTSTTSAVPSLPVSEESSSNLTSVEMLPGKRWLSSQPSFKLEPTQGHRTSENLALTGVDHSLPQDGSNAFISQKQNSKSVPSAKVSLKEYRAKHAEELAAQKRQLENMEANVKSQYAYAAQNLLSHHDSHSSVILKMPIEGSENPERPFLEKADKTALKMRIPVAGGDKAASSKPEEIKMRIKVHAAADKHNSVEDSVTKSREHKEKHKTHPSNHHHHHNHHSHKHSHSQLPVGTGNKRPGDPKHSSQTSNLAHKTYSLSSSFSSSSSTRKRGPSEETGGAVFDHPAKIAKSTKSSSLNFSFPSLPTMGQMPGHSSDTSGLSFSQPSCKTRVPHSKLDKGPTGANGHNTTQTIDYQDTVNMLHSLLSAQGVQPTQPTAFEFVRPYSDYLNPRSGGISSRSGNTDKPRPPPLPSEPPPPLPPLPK
Description: as §7, §8, §9, §10

MV4-11 cells = assay: MTT cell proliferation assay; format: cell-based, human; conditions: Homo sapiens, MV4-11, 48 h, mean ± SEM
Excerpt: as §1, §2, §3, §4

HsCK1ε = molecular target: T6, HsCK1ε (Homo sapiens, UniProt P49674); assay: Kinase assay, luminescent ADP-Glo, 10 µM ATP; format: biochemical; conditions: read-out: IC50 CK1
T6 construct: made in house; host or cells: Sf9 insect cells (baculovirus, pFastBac)
T6 sequence (P49674 whole entry): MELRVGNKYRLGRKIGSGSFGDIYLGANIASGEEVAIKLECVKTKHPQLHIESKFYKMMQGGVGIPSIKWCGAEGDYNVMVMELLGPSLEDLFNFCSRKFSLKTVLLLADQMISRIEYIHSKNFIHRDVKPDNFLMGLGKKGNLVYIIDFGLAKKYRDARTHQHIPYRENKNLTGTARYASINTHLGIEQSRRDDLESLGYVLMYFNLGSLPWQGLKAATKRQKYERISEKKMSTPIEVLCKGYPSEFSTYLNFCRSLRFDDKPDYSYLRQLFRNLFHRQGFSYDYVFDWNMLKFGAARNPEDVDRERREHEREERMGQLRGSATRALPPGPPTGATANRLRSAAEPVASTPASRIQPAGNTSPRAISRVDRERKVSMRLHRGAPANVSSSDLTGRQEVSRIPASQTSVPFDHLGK
Description: as §7, §8, §9, §10

RnDYRK1A-kd = RnDYRK1A-kd (Rattus norvegicus, UniProt Q63470); assay: Kinase assay, luminescent ADP-Glo, 10 µM ATP; format: biochemical; conditions: read-out: IC50 DYRK1A
Description: as §7, §8, §9, §10

[1] = Table 1, ADP-Glo, 10 µM ATP, duplicate, read-out: Kinase Enzymatic IC50 Pim-1
[2] = Table 2, ADP-Glo, 10 µM ATP, mean of n ≥ 3, read-out: IC50 Pim-1

IC50 (K562 cells)	IC50 (HsPim-1; [1])	IC50 (HsPim-1; [2])	IC50 (HsPim-1; printed in Figure 1, no reference given, read-out: Pim-1 IC50 (Figure 1))	IC50 (MmCLK1)	IC50 (HsCDK5/p25)	IC50 (HsPim-2)	IC50 (HsCDK9/CyclinT)	IC50 (MV4-11 cells)	IC50 (HsCK1ε)	IC50 (RnDYRK1A-kd)	melting point	Compound	IC50 (KU812 cells)	IC50 (CaPkc1)	IC50 (HeLa cells)	IC50 (HT-29 cells)	IC50 (MCF-7 cells)
> 100000 nM	730 nM	730 nM	732 nM	> 10000 nM	5600 nM	1430 nM	220 nM	31500 ± 4700 nM	–	–	–	CC(=O)C1=C(O)C=C2Oc3c(C(N)=O)c(O)cc(O)c3[C@]2(C)C1=O [Cerco, Cercosporamide]	> 100000 nM	44 nM	7500 ± 3100 nM	10400 nM	44300 ± 2100 nM
> 100000 nM	> 1000 nM and 1200 nM	1200 nM	–	–	–	–	920 nM	16100 ± 1600 nM	680 nM	690 nM	342 to 343 °C	NC(=O)c1c(O)cc(O)c2c1oc1ccc(F)cc12 [Compound 46, 8-Fluoro-1,3-dihydroxydibenzo[b,d]furan-4-carboxamide]	> 100000 nM	–	–	–	–
